Source: patent US20190291112A1, “DROPLET MICROFLUIDICS FOR DRUG SCREENING” (University of Macau, priority 2018, published 2019)

Key:
Type in all cases: cell-based, human
Jurkat cells [1] = assay: On chip drug screening assay (ethidium homodimer 1 staining); details: 16-24 h
Description: Jurkat E6.1 cells (ATCC® TIB-152™) and MDA-MB-231 cells (ATCC® HTB-26™) were used as models for suspended and adherent cancer cell lines respectively. Jurkat cell line was derived from human acute T cell leukemia, whereas MDA-MB-231 cell line was derived from human metastatic breast adenocarcinoma. On chip drug screening was performed using the PDMS-based microfluidic chip as described above. A 500 μL glass syringe (Hamilton, USA) and polytetrafluoroethylene (PTFE) tubings with appropriate bore (Cole Parmer, USA) was used to connect between the syringe pump (Harvard Apparatus PHD Ultra Syringe Pump, USA) and the microfluidic chip. Fluorinert® FC-40 (Sigma-Aldrich, USA) supplemented with 2% 008-Fluorosurfactant (Ran Biotechnologies, USA) was used as oil phase; relevant cell culture medium, supplemented with 1% (w/v) methyl cellulose (Sigma-Aldrich, USA) was used as aqueous phase. Cells treated with 0.1% dimethyl sulfoxide (DMSO) were used as negative control. […] Next, […], cell-drug mixtures were loaded into the tubing, consecutively segregated by oil phase at withdrawal rate of 200 μL/h by syringe pump. After loading all mixtures, the tubing was inserted into the microfluidic chip, which was back-flushed with oil phase at 500 μL/h by syringe pump. After that, the mixtures were infused at 25 μL/h by syringe pump. Finally, the inlet and outlet tubings were cut and sealed with Vaseline (Vaseline, USA). […] Brightfield and red fluorescence images (Ex. 531/40 nm, Em. 593/40 nm) were taken under 10× magnification (Life Technologies EVOS FL Imaging System, USA). […] For on chip assays, the number of cells was counted in brightfield and red fluorescence images from each well respectively.

MDA-MB-231 cells [2] = assay: as above
Description: (§1) Jurkat E6.1 cells (ATCC® TIB-152™) and MDA-MB-231 cells (ATCC® HTB-26™) were used as models for suspended and adherent cancer cell lines respectively. Jurkat cell line was derived from human acute T cell leukemia, whereas MDA-MB-231 cell line was derived from human metastatic breast adenocarcinoma.
On chip drug screening was performed using the PDMS-based microfluidic chip as described above. A 500 μL glass syringe (Hamilton, USA) and polytetrafluoroethylene (PTFE) tubings with appropriate bore (Cole Parmer, USA) was used to connect between the syringe pump (Harvard Apparatus PHD Ultra Syringe Pump, USA) and the microfluidic chip. Fluorinert® FC-40 (Sigma-Aldrich, USA) supplemented with 2% 008-Fluorosurfactant (Ran Biotechnologies, USA) was used as oil phase; relevant cell culture medium, supplemented with 1% (w/v) methyl cellulose (Sigma-Aldrich, USA) was used as aqueous phase. Cells treated with 0.1% dimethyl sulfoxide (DMSO) were used as negative control.
Briefly, cells at final concentrations of 1-2×10^6 cells per mL were aliquoted in 0.2 mL PCR tubes, then mixed with corresponding drugs and 2 μM ethidium homodimer 1 (Life Technologies, USA) by manual pipetting. Next, […], cell-drug mixtures were loaded into the tubing, consecutively segregated by oil phase at withdrawal rate of 200 μL/h by syringe pump. After loading all mixtures, the tubing was inserted into the microfluidic chip, which was back-flushed with oil phase at 500 μL/h by syringe pump. After that, the mixtures were infused at 25 μL/h by syringe pump. Finally, the inlet and outlet tubings were cut and sealed with Vaseline (Vaseline, USA). The chips were placed in 150 mm cell culture dish (Coming, USA) containing wet paper towels, and transferred to humidified incubator at 37° C. supplemented with 5% CO2 for 16-24 h incubation. Brightfield and red fluorescence images (Ex. 531/40 nm, Em. 593/40 nm) were taken under 10× magnification (Life Technologies EVOS FL Imaging System, USA).
For on chip assays, brightfield and red fluorescence images were initially processed by ImageJ v.1.50i, Cell counting was either performed manually or by Matlab v.R201.5a based on the workflow shown on FIG. 5B. Briefly, cells from brightfield and red fluorescence images were detected separately using a heuristic Hough Transformation model based on threshold implementation on circular diameter and pixel intensity. Next, each recognized cell was dissected into 10×10 pixels matrix for analysis of its pixel intensity. Subsequently, two layers of multi-radii analysis of pixel intensity around the center of each matrix distinguished signal from noise. Afterwards, cells were distinguished from noise based on the brightfield image, whereas cell viability was determined by signal intensity of corresponding red fluorescence image. Finally, positional information (defined by row: x, and column: y) and size (defined by radius: r) of discrete image matrix was used to classify each cell as “live” or “dead”. The total number of cells in each image corresponding to each droplet formation well on chip was summarized as a table in CSV format for calculation of cell viability. […]
For on chip assays, the number of cells was counted in brightfield and red fluorescence images from each well respectively. Cell viability was calculated as follows: […]
where Total cells and Dead cells referred to the total number of cells counted from brightfield and red fluorescence images, respectively. […]

MDA-MB-231 cells [3] = assay: 384-well microtiter plate drug screening assay (Alamar Blue); details: 384-well plate
Description: as §1
(§2) Microtiter plate drug screening assays were carried out on 96-well clear round flat-bottom plates (Corning, USA) or 384-well white square flat-bottom plates (Corning, USA).
(§3) First, 5.0×10^5 or 1.0×10^5 cells were seeded per well for 96-well and 384-well plates respectively. Drugs were diluted with Dulbecco's phosphate-buffered saline (DPBS) (Life Technologies, USA), and subsequently added to achieve final drug concentrations as indicated on the graphs. Afterwards, the plates were transferred to humidified incubator at 37° C. supplemented with 5% CO2 for 16-24 h incubation. Finally, Alamar Blue assay was used to measure cell viability. Fluorescence intensity (Ex. 560 nm, Em. 590 nm) using auto-cutoff was measured from bottom on plate reader (Molecular Devices SpectraMax MS Plate Reader, USA). Cells treated with 0.1% dimethyl sulfoxide (DMSO) were used as negative control, while no cells were added to blank control. All experiments were performed in triplicate for 96-well plates and in quadruplicates for 384-well relates.
(§4) For microliter plate assays, average relative fluorescence signal measured by plate reader from 6 reads of each well was used as raw data point. Cell viability was calculated as follows: […]
(§5) where Sample represented raw data points of each sample well, whereas DMSO control and Blank represented average raw data points of all DMSO control and Blank wells, respectively.

Jurkat cells [4] = assay: as above; details: 384-well plate, 16-24 h
Description: as §1, §2, §3, §4, §5

Compound	IC50 (Jurkat cells [1]; Homo sapiens)	IC50 (MDA-MB-231 cells [2]; Homo sapiens)	viability at 10 µM (MDA-MB-231 cells [3]; Homo sapiens, 10.0 μM dose, read-out: cell viability)	IC50 (Jurkat cells [4]; Homo sapiens)	IC50 (Jurkat cells [1])	IC50 (MDA-MB-231 cells [2])	IC50 (MDA-MB-231 cells [3])	IC50 (Jurkat cells [4])
CC(C)C[C@H](NC(=O)[C@H](Cc1ccccc1)NC(=O)c1cnccn1)B(O)O [bortezomib]	22.1 µM	> 10 µM	50%	0.039 µM				
N.N.[Cl][Pt][Cl] [cisplatin]					39 µM	4.2 µM	> 50 µM	39 µM
